Laboratory results published in patent US20150141460A1, “Anti-inflammatory Compositions” (Cambridge Enterprise Limited, priority 2007, published 2015).
Entries after “also recorded” stand apart in the source; their conditions may differ.

Experiments:
[1] = Pharmacokinetics following a single dose in rat (1 mg/kg iv, 3 mg/kg oral), LC-MS/MS, one-compartment model; type: in vivo; conditions: for bioavailability: 3 mg/kg oral in 1% CMC vs 1 mg/kg iv, one-compartment model, read-out: F (%) oral bioavailability; for Vd: read-out: Vss (L/kg) volume of distribution; for half-life: intravenous dosing 1 mg/kg, read-out: t1/2 (mins) dominant plasma half-life
Procedure: Compounds were administered as a single dose (either 1 mg/kg bodyweight in 5% DMSO via the intravenous route or 3 mg/kg in 1% carboxymethylcellulose via the oral route) to three adult rats (using different rats for each compound and each route of administration).
Blood was then sampled at various time points (including just prior to dose administration) out to 24 hrs post dose, and the level of the various compounds was assessed using a validated LC-MS/MS assay. Briefly, 3-5 μl of the deproteinised sample was applied to a Waters Atlantis (C18 20×2.1 mm, 3 μm bead size) reverse phase chromatography column equilibrated in 0.1% formic acid in 95:5 water:actetonitrile. Over 3.5 minutes bound material was gradient eluted reaching 0.1% formic acid in 5:95 water:acetonitrile, followed by a step gradient back to 0.1% formic acid in 95:5 water:acetonitrile. The column eluent was then directed to an Applied Biosystems API 4000/3200 QTrap MS/MS mass spectrometer, with a TurboIonspray™ ion source operating in positive ion mode. The interface temperature was set at 650° C., with a 40 ms dwell time for each MRM transition, monitoring the following ions:
The internal standard in each determination was the related compound (S)-3-(2′,2′-dimethyl-propanoylamino)-caprolactam, which was spiked into the sample prior to deproteinization. The lower limit of quantitation (LLOQ) for this assay was 2.4 ng/ml for each compound except (I′), where it was 38.1 ng/ml.
Following LC-MS/MS analysis of each collected sample, the pharmacokinetic disposition of the compound was modelled using Kinetica software, a well known software package for such applications.
Compounds (VI) and (VII) were subject to pharmacokinetic analysis in rat using exactly the same protocols previous applied for compounds (I) through (V) in example 1.
We therefore subjected (VIII) to pharmacokinetic analysis in rat using exactly the same protocols previous applied for compounds (I′) through (VII) in examples 1 and 7.
The isolated (R)-enantiomer of (I) was therefore synthesised (exactly as described herein for the isolated (S)-enantiomer, but replacing the (S)-ornithine starting material with commercially available (R)-ornithine of high stereochemical purity), and the PK properties of this agent, in rat, was determined using the identical methodology described above (see Examples 1, 7 and 8).

[2] = In vitro stability (hydrolysis of C-Cl bond) in physiological saline, LC/MS; type: physicochemical; conditions: after 24 hours at 37° C.
Procedure: (§1) An obvious concern related to this molecule was the stability of the C—Cl bond. We therefore examined the stability of (VIII) in vitro, both in physiological saline and in a rat liver microsome preparation. Encouragingly, less than 2% of (VIII) had undergone hydrolysis (determined by LC/MS, with dual ion detection of the hydrolysis product (V) and the parent compound (VIII)) even after 24 hours at 37° C. […] As a result, we conclude that compound (VIII) has similar in vitro stability and intrinsic clearance to (I′).

[3] = Stability in rat liver microsome preparation; type: in vitro ADME; conditions: 1 μM, 1 hour at 37° C.
Procedure: as §1

[4] = Identification of the primary metabolites in pooled rat urine by LC-MS-MS; type: in vivo; conditions: single oral dose 3 mg/kg in 1% CMC, pooled urine over 24 hrs, qualitative, 3 mg/kg
Procedure: Urine was collected from rats exposed to a single oral dose (3 mg/kg in 1% CMC) of each compound over a 24 hour period in metabolic cages. The pooled urine sample was then subjected to full scan mass spectral analysis, using the same LC-MS conditions as described in example 1 above. Further MS-MS analysis of the product ions was then performed, and likely fragmentations/re-arrangements assigned from the publicly available Metabolite ID database.
For the major metabolites, the assigned structures were confirmed by synthesis of authentic samples, using methods well known in the art, which were subject to LC-MS-MS analysis under the same conditions as the urine samples.
Note that metabolite ID studies provide only qualitative estimates of the relative amounts of the different metabolites present, and separately validated assays with appropriate internal standards would be required to quantitate each metabolite species.

[5] = test system: S. Typhinurium (TA102, TA98 and TA100); test: AMES test, revertant colony formation; type: cell-based; conditions: at 5 mg/ml
Procedure: The five compounds were subjected to a standard AMES test to assess likely genotoxicity. Three His-auxotroph strains of S. Typhinurium (TA102, TA98 and TA100) were treated with each of the compounds at 5 concentrations (up to 5 mg/ml) in the presence and absence of S9 rat liver microsomal metabolising system. The number of revertant colonies was then determined by plating on trace-His minimal media.

NK2 receptor = target: T1, NK2 receptor (Homo sapiens, UniProt P21452); test: CEREP panel binding, NK2 receptor; conditions: estimated from single concentration 10 μM; read-out: estimated ED50 for interaction with the NK2 receptor
T1 construct: purchased CEREP (screening panel)
T1 sequence (P21452 1-398): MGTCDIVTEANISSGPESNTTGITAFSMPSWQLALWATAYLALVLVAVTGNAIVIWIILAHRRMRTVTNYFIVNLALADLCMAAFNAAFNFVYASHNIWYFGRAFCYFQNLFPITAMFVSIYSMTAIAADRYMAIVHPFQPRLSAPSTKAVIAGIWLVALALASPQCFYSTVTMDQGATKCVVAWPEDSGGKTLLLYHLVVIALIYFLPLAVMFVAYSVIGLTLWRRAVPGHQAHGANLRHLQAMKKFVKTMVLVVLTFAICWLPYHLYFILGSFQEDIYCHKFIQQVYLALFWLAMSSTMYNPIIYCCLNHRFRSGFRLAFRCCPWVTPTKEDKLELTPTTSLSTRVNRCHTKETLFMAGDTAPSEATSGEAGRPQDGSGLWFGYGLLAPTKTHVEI
Procedure: FIGS. 5A-5F show the profile of cross-reactivity for each of the five compounds (I′) to (V) (FIG. 5A: (II); FIG. 5B: (III); FIG. 5C: (V); FIG. 5D: (I′) and FIG. 5E: (IV)) against a panel of 75 different receptors that compose the CEREP panel (see text). The compounds were tested at a single concentration (10 μM), and the inhibition of binding (Y-axis of each histogram) for a known ligand to each of the 75 receptors is reported (−100% therefore represents a 2-fold increase in binding of the specific ligand in the presence of the test compound). All reactions were performed in duplicate, and the bars represent the mean (no estimate of the replicate error is shown to simplify the graphs). Only a 50% or greater inhibition (or stimulation) of binding (representing an ED50 below 10 μM for the interaction of the test compound with the particular receptor) was considered statistically and biologically significant in this screening assay. For the five compounds tested here, only one interaction (that of compound (II) with the NK2 receptor, marked by the arrowhead in FIG. 5A) was considered potentially significant, although even this interaction was weak (estimated ED50 5-10 μM).
Binding to non-target receptors was assessed using similar protocols, exploiting specific radioligands for each receptor which are well known in the art. […]

[6] = plasma, averaged across three rats
[7] = plasma, iv, 1 mg/kg, averaged across three rats

O=C1NCCCC[C@@H]1NC(=O)C12CC3CC(CC(Cl)(C3)C1)C2 [(VIII)]
clearance, fold higher than (I′) [1]: more than 20 fold | oral bioavailability [1]: no detectable oral bioavailability whatsoever | level of analyte in plasma following oral dosing ([1]; all time-points, limit of quantitation ˜2 ng/ml): below the limit of quantitation | AUC(0-t) ([1]; blood, single oral dose 3 mg/kg in 1% CMC, Tables 7-9, read-out: Exposure (min · ng/ml), oral exposure AUC 0-t (converted)): < 1.67 ng·h/mL | bioavailability [1, 6]: < 1% | clearance [1, 7]: 3.77 L/h/kg | Vd [1, 7]: 0.7 L/kg | half-life [1, 7]: 15 min | hydrolysis to (V) [2]: less than 2% | degradation compared to a no NADPH blank run [3]: less than 10%

O=C1NCCCC[C@@H]1NC(=O)C12CC3CC(CC(C3)C1)C2 [Compound (II), 3-(adamantane-1-carbonylamino)-caprolactam]
major metabolites / route of metabolism detected in urine [4]: cytochrome P450-mediated hydroxylation; also recorded: rapidly converted to (V) in vivo | bioavailability [1, 6]: < 1% | Vd [1, 7]: 0.8 L/kg | half-life [1, 7]: 16 min | effect on bacterial lawn growth [5]: inhibition of bacterial lawn growth | IC50 (NK2 receptor): 5 to 10 µM
